# Data reported in patent US11754486B2, “Systems and methods for measuring properties of particles” (Massachusetts Institute of Technology, priority 2017, dated 2023).
# How the values were obtained:
# L1210 cells [1] = test: Imaging of F-actin (LifeAct-RFP) in live L1210 cells before and after chemical treatment; assay type: cell-based, mouse; settings: live L1210 cells expressing LifeAct-RFP, before and after 30 min treatment; 1 μM LatB, 1 μM CytoD, Noc 1 μg/ml
# Description: L1210 FUCCI cells, which express the fluorescence cell cycle marker construct mAG-hGem, were transfected with LifeAct, a F-actin labelling red fluorescent protein construct, using rLVUbi-LifeAct-TagRFP lentiviral vector obtained from ibidi GmbH. Several rounds of transfections were carried out using spinoculation. In short, 1.5×10^5 L1210 FUCCI cells were mixed with 10 μg/ml Polybrene (EMD Millipore) and 1×106 TU of lentivirus, and the mixture was centrifuged at 800 g for 60 minutes at 25° C. After centrifugation, the cells were moved to normal cell culture media, grown overnight, and the spinoculation procedure was repeated. Cells were moved to normal culture media after three rounds of transfections, and 24 hours later, selection was started by adding 10 μg/ml Puromycin (Sigma-Aldrich). After a week of selection, the transfected population was enriched for cells expressing high levels of LifeAct by FACS sorting using BD FACS Aria.
# L1210 cells expressing the FUCCI (mAG-hGem) and LifeAct-RFP F-actin probe (rLVUbi-LifeAct-TagRFP) constructs were imaged on poly-lysine coated glass bottom CellView cell culture dishes (Greiner Bio-One). Media, CO2, and temperature conditions during the imaging were the same as within the SMR. Imaging was carried out using a DeltaVision widefield deconvolution microscope with standard FITC and TRICT filters, 100× oil immersion objective and immersion oil with refractive index of 1.522. […]
# All images were deconvolved using standard settings in the softWoRX software. To normalize the effect of photo-bleaching, the total LifeAct signal in the entire images (2048×2048 pixels) that contained multiple cells was calculated. […] During the subsequent image analyses, the LifeAct intensity was corrected with the corresponding decay coefficient calculated from the polynomial fit for each frame. To analyze individual cells, the representative cells that went through the nuclear envelope breakdown and/or cytokinesis during the experiment were determined. These cells were cut out of the larger images and analyzed individually (FIG. 28A).
# L1210 cells [2] = test: SNACS / node deviation end-point assay of chemically perturbed L1210 cells in the suspended microchannel resonator (SMR); assay type: cell-based, mouse; settings: for SNACS (size-normalized acoustic scattering, proxy of cell stiffness) after treatment: L1210 cells pretreated 20-30 min, LatB 0.02-1 μM, CytoD 1 μM, Bleb 50 μM, Noc 1 μg/ml, vs DMSO 0.1% control, LatB and CytoD p<0.0001
# Description: SMR devices were fabricated at CEA-LETI, Grenoble, France. The fluid channel in the detection regime is covered with thin silicon layers. The SMRs were vibrated with a piezo-ceramic plate bonded underneath the chip, providing actuation to resonate the cantilever beam in the second mode. To track the changes in the resonant frequency of the cantilever as a function of time, the cantilever was kept in a feedback loop oscillating at its resonant frequency. The motion of the cantilever was measured using piezoresistors that are implanted at the base of the silicon cantilever. A digital control platform was utilized to oscillate the SMR in direct feedback mode, where the motion signal acquired from the piezoresistor is delayed, amplified, and utilized as the drive signal used to actuate the cantilever. The measurement bandwidth of this control system was set at ˜1,500 Hz, which is wide enough to capture frequency modulation signals created by cell transit events and narrow enough to minimize noise.
# (§1) The system was operated by placing a chip on top of a hollow copper plate that is connected to a water bath by tubing to maintain constant temperature on the chip. For all single-cell, long-term monitoring experiments, the temperature of the copper plate was kept at 37° C. The sample was loaded to the SMR from vials pressurized with air containing 5% CO2 to maintain the pH of the culture. A 0.007″ inner diameter fluorinated ethylene propylene (FEP) tubing (IDEX Health & Science) was utilized to push the sample into the chip. The fluid flow was controlled using two electronic pressure regulators (Proportion Air QPV1) and three solenoid valves (SMC-S070), which were controlled by National Instruments control cards and a custom measurement software (Labview 2012). Typically, differential pressure of ˜0.5 psi was applied across the SMR, yielding a flow rate of ˜2 nL/s (calculated based on the frequency modulation signal due a cell transit; typically 200-300 ms) to maintain constant shear and data rate. Under these conditions, the L1210 cell growth rate was similar to that in culture. Beads, hydrogels and drug-response end-point assays were measured at room temperature. All end-point assays were conducted within 30 minutes after samples were loaded. New samples were flushed every several minutes into the input bypass to minimize potential size bias due to particle/cell settling in the tubing and sample vials.
# To measure buoyant mass (antinode) and node deviation (node) from the acquired resonant frequency waveforms, the frequency data was filtered with a third order Savitzky-Golay low-pass filter and the local minima (antinode) that is below a user-defined threshold. Next, local maxima (node) around the peaks were determined. To correct for the possible slope during the particle/cell transition through the cantilever, a baseline was calculated and subtracted from the measured peaks by fitting a first order polynomial at frequency data points prior and posterior of the cell signal. For single-cell volume measurements (FIG. 16A), baselines were fitted with a second order polynomial to account for the baseline fluctuation due to fluid exchange. Both local maxima and minima in the cell signal were subtracted from the linear baseline to obtain the buoyant mass (local minima, antinode) and node deviation (local maxima, node). For single-cell end-point assays (population measurements), frequency peaks were rejected when local minima (two antinodes) differed from each other more than 10% of the average value and/or local maxima (two nodes) differed from each other more than 15% of the average value of local minima, which occur when multiple cells or cell with debris enter the SMR simultaneously. Peaks were rejected if their shape was atypical (e.g., particle/cell stuck in the cantilever). […]
# Baf3 cells = test: Node deviation versus time of Baf3 cells treated with drug (single-cell therapeutic sensitivity); assay type: cell-based; settings: a few hours of treatment
# Description: Acoustic scattering may be used as an early detection marker of single-cell therapeutic sensitivity (FIGS. 11A-11B). […] Viability and proliferation assays are generally not sensitive until 24 hours of drug exposure (data not shown).
# L1210 cells [3] = test: Continuous single-cell monitoring of SNACS (stiffness) of L1210 cells through mitosis in the SMR; assay type: cell-based, mouse
# Description: Next, it was determined if both stiffness and buoyant mass of the same cell could be repeatedly measured in order to monitor cell stiffness during the cell cycle. To do so, a previously reported fluidic control strategy was implemented that enables continuous, non-invasive SMR measurements of the same cell. Employing on-chip microscopy capable of acquiring Differential Interference Contrast (DIC) images, stiffness, buoyant mass and morphology of the same cell over multiple generations was simultaneously measured. […] SNACS is shown in dashed lines when measurement error becomes statistically significant. The morphology of the cell was imaged to pinpoint the onset of anaphase as well as to correct for mass elongation effects on the SNACS measurement during anaphase and telophase (FIG. 24A-24C). Dynamic but consistent changes in cell stiffness during mitosis were observed. […] The error in the SNACS measurement increased after cells became full doublets (˜15 min after the onset of anaphase), making subsequent stiffness changes until division not statistically significant (p>0.05). Although the duration and magnitude of the dynamics varied, we observed a similar trend in cell stiffness in other mammalian cell types: BaF3 (FIG. 15D) and S-Hela (FIG. 15E).
# as §1
# To measure buoyant mass (antinode) and node deviation (node) from the acquired resonant frequency waveforms, the frequency data was filtered with a third order Savitzky-Golay low-pass filter and the local minima (antinode) that is below a user-defined threshold. Next, local maxima (node) around the peaks were determined. To correct for the possible slope during the particle/cell transition through the cantilever, a baseline was calculated and subtracted from the measured peaks by fitting a first order polynomial at frequency data points prior and posterior of the cell signal. For single-cell volume measurements (FIG. 16A), baselines were fitted with a second order polynomial to account for the baseline fluctuation due to fluid exchange. […]
compound,measurement,setting,value
C/C1=C/C(=O)O[C@@H]2C[C@@H](CC[C@H](C)/C=C\CC1)O[C@@](O)([C@@H]1CSC(=O)N1)C2 [Latrunculin B],actin cortex morphology (LifeAct F-actin images),L1210 cells [1],punctured cortex
same,"SNACS (size-normalized acoustic scattering, proxy of cell stiffness) after treatment",L1210 cells [2],decreased the SNACS
Cc1ccc(NC(=O)c2ccc(CN3CCN(C)CC3)cc2)cc1Nc1nccc(-c2cccnc2)n1 [Imatinib],node deviation (ND) of treated cells versus DMSO,Baf3 cells,distinct ND
COC(=O)Nc1nc2ccc(C(=O)c3cccs3)cc2[nH]1 [Nocodazole],actin cortex morphology (LifeAct F-actin images),L1210 cells [1],affected the actin cortex morphology
same,"SNACS (size-normalized acoustic scattering, proxy of cell stiffness) after treatment",L1210 cells [2],reduced SNACS
C=C1[C@@H](C)[C@H]2[C@H](Cc3ccccc3)NC(=O)[C@]23[C@H](OC(C)=O)/C=C/[C@@](C)(O)C(=O)[C@@H](C)C/C=C/[C@H]3[C@@H]1O [Cytochalsin D],actin cortex morphology (LifeAct F-actin images),L1210 cells [1],polarized cortex
same,"SNACS (size-normalized acoustic scattering, proxy of cell stiffness) after treatment",L1210 cells [2],decreased the SNACS
"CCN(c1nc(N)c(C(=O)NC(=N)N)nc1Cl)C(C)C [EIPA, ethylisopropylamiloride]",stiffness increase in early anaphase,L1210 cells [3]; 10 μM EIPA,not present
same,"ΔSNACS, SNACS change in prophase and metaphase (early mitosis)","L1210 cells [3]; 10 μM EIPA (n=5), 5 μM STLC (n=8), mean±standard deviation, control −0.22±0.01",−0.08±0.02
"N[C@@H](CSC(c1ccccc1)(c1ccccc1)c1ccccc1)C(=O)O [STLC, S-trityl-1-cysteine]",stiffness (SNACS) during metaphase arrest,L1210 cells [3]; 5 μM STLC,stiffness remained low for several hours
Cc1ccc2c(c1)C(=O)C1(O)CCN(c3ccccc3)C1=N2 (stereo not drawn) [Blebbistatin],stiffness in early mitosis,L1210 cells [3]; 25 μM Blebbistatin,still displayed a gradual stiffness decrease in early mitosis
same,stiffness dynamics in anaphase and telophase,"L1210 cells [3]; 25 μM Blebbistatin, compared with untreated cells",disappeared
same,"SNACS (size-normalized acoustic scattering, proxy of cell stiffness) after treatment",L1210 cells [2],decreased the SNACS
paraformaldehyde,SNACS after crosslinking of cellular structures,L1210 cells [2],opposite change in SNACS
same,node deviation after treatment,L1210 cells [2],increased the node deviation
